# Data reported in patent publication US9302991B2, “Arylamide derivatives as TTX-S blockers” (RaQualia Pharma Inc., priority 2010, dated 2016).
# Molecular target: T1, human Nav1.7 channels (Homo sapiens, UniProt Q15858)
# T1 construct: expressed in transfected cells; host or cells: CHO
# Experiment: FRET assay, human Nav1.7 (EFS on FDSS)
# Type: cell-based
# Settings: CHO cells expressing human Nav1.7, read-out: IC50 against Nav1.7
# How it was run: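 CHO cells stably expressing the channel, loaded with CC2-DMPE (10 µM) then DiSBAC2(3) (15 µM) plus VABSC-1, in HEPES-buffered saline pH 7.4 at room temperature. Electrical field stimulation on FDSS; FRET ratio at 440 nm fitted for IC50.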
# T1 sequence (Q15858 whole entry): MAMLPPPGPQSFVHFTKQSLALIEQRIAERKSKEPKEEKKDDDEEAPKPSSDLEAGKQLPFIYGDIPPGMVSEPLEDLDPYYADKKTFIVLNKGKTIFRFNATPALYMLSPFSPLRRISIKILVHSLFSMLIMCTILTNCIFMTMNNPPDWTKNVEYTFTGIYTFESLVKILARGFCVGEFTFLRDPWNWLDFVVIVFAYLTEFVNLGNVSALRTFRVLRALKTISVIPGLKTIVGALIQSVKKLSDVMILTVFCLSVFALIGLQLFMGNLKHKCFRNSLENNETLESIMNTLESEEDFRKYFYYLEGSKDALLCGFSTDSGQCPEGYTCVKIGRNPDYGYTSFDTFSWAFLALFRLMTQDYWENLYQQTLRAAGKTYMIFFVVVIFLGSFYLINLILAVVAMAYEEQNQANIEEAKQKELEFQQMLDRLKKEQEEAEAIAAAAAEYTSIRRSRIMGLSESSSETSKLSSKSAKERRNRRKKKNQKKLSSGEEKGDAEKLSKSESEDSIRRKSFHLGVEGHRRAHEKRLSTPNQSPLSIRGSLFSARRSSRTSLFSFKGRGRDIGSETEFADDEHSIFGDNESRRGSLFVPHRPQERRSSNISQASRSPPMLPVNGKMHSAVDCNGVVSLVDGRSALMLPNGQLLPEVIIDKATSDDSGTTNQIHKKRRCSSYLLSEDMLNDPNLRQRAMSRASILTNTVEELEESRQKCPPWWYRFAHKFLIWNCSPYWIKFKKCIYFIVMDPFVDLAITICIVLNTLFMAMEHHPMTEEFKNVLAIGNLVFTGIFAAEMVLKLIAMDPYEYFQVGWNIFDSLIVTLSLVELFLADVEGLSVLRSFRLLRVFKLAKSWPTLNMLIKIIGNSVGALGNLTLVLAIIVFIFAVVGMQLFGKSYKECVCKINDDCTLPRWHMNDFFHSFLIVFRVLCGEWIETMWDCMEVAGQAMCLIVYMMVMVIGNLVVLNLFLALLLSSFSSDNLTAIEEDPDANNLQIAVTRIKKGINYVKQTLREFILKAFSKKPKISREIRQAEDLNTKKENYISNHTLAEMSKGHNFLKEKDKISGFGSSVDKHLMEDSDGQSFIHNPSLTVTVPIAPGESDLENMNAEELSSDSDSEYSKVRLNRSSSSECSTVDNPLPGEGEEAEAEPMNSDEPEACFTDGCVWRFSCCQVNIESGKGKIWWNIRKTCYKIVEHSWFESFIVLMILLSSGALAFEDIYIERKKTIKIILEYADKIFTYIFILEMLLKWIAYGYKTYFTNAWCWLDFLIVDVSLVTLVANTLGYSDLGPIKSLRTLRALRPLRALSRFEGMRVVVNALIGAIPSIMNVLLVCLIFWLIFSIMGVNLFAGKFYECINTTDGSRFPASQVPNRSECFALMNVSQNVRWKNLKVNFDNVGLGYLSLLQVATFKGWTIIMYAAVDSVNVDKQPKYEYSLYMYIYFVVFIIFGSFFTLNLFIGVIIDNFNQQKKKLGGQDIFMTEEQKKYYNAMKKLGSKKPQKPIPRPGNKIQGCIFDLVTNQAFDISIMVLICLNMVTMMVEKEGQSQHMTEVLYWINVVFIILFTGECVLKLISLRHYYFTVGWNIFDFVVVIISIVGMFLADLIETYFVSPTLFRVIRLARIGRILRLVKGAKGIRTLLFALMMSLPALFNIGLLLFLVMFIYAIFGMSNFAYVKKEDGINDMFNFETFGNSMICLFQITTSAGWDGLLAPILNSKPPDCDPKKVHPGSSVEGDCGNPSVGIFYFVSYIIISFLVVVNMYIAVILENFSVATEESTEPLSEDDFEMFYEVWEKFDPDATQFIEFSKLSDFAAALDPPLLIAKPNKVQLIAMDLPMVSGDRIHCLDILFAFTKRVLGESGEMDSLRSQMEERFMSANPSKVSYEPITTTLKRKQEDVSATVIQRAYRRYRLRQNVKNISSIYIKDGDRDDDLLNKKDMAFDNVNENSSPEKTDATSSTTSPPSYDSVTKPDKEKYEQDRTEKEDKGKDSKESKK
row,Structure (SMILES),IC50 [µM]
1,"Cc1cc(C(=O)NC(C)c2cccc(SC(F)(F)F)c2)cc(NC(=O)C(C)C)n1 (single isomer, unassigned) [Example 1032, 2-isobutyramido-6-methyl-N-(1-(3-((trifluoromethyl)thio)phenyl)ethyl)isonicotinamide]",< 1
2,"Cc1cc(C(=O)NC(C)c2cnc(OCC(F)F)c(Cl)c2)cc(NC(=O)C2CC2)n1 (single isomer, unassigned) [Example 1063, N-(1-(5-chloro-6-(2,2-difluoroethoxy)pyridin-3-yl)ethyl)-2-(cyclopropanecarboxamido)-6-methylisonicotinamide]",< 1
3,"Cc1cc(C(=O)NC(C)c2ccc(OCC(C)(F)F)nc2)cc(NC(=O)C2CC2)n1 (single isomer, unassigned) [Example 1064]",< 1
4,"Cc1cc(C(=O)NC(C)c2ccc(OCC(F)F)c(C)c2)nc(NC(=O)C2CC2)n1 (single isomer, unassigned) [Example 1075, 2-(cyclopropanecarboxamido)-N-(1-(4-(2,2-difluoroethoxy)-3-methylphenyl)ethyl)-6-methylpyrimidine-4-carboxamide]",< 1
5,"CC(=O)Nc1cc(C(=O)NC(C)c2cc(C(F)(F)F)ccc2F)ccn1 (single isomer, unassigned) [Example 1096, 2-acetamido-N-(1-(2-fluoro-5-(trifluoromethyl)phenyl)ethyl)isonicotinamide]",< 1
6,"CC(=O)Nc1cc(C(=O)NC(C)c2ccc(OCC(F)F)c(Cl)c2)cc(C)n1 (single isomer, unassigned) [Example 1100, 2-acetamido-N-(1-(3-chloro-4-(2,2-difluoroethoxy)phenyl)ethyl)-6-methylisonicotinamide]",< 1
7,"Cc1cc(C(=O)NC(C)c2ccc(OCC(F)F)c(Cl)c2)cc(NC(=O)C(C)C)n1 (single isomer, unassigned) [Example 1101, N-(1-(3-chloro-4-(2,2-difluoroethoxy)phenyl)ethl)-2-isobutyramido-6-methylisonicotinamide]",< 1
8,"Cc1cc(C(=O)NC(C)c2ccc(OCC(F)F)cc2C)cc(NC(=O)C(C)C)n1 (single isomer, unassigned) [Example 1104, N-(1-(4-(2,2-difluoroethoxy)-2-methylphenyl)ethyl)-2-isobutyramido-6-methylisonicotinamide]",< 1
9,"CCC(=O)Nc1cc(C(=O)NC(C)c2ccc(OCC(F)F)cc2Cl)ccn1 (single isomer, unassigned) [Example 1116, N-(1-(2-chloro-4-(2,2-difluoroethoxy)phenyl)ethyl)-2-propionamidoisonicotinamide]",< 1
10,"COc1nc(OCC(F)F)ccc1C(C)NC(=O)c1ccnc(NC(C)=O)c1 (single isomer, unassigned) [Example 1160, 2-acetamido-N-(1-(6-(2,2-difluoroethoxy)-2-methoxypyridin-3-yl)ethyl)isonicotinamide]",< 1
11,"CCC(=O)Nc1cc(C(=O)NC(C)c2ccc(OCC(F)F)nc2OC)ccn1 (single isomer, unassigned) [Example 1161, N-(1-(6-(2,2-difluoroethoxy)-2-methoxypyridin-3-yl)ethyl)-2-propionamidoisonicotinamide]",< 1
12,"COc1nc(OCC(F)F)ccc1C(C)NC(=O)c1ccnc(NC(=O)C2CC2)c1 (single isomer, unassigned) [Example 1162, 2-(cyclopropanecarboxamido)-N-(1-(6-(2,2-difluoroethoxy)-2-methoxypyridin-3-yl)ethyl)isonicotinamide]",< 1
13,"COc1nc(OCC(F)F)ccc1C(C)NC(=O)c1ccnc(NC(=O)C(C)C)c1 (single isomer, unassigned) [Example 1163, N-(1-(6-(2,2-difluoroethoxy)-2-methoxypyridin-3-yl)ethyl)-2-isobutyramidoisonicotinamide]",< 1
14,"COc1nc(OCC(F)F)ccc1C(C)NC(=O)c1cc(C)nc(NC(=O)C(C)C)c1 (single isomer, unassigned) [Example 1166, N-(1-(6-(2,2-difluoroethoxy)-2-methoxypyridin-3-yl)ethyl)-2-isobutyramido-6-methylisonicotinamide]",< 1
15,"CCC(=O)Nc1cc(C(=O)NC(C)c2ccc(OCC(F)(F)C(F)(F)F)nc2)ccn1 (single isomer, unassigned) [Example 1169, N-(1-(6-(2,2,3,3,3-pentafluoropropoxy)pyridin-3-yl)ethyl)-2-propionamidoisonicotinamide]",< 1
16,"Cc1cc(C(C)NC(=O)c2ccnc(NC(=O)C(C)C)c2)cc(Cl)c1OCC(F)F (single isomer, unassigned) [Example 1210, N-(1-(3-chloro-4-(2,2-difluoroethoxy)-5-methylphenyl)ethyl)-2-isobutyramidoisonicotinamide]",< 1
17,"Cc1cc(C(=O)NC(C)c2cc(C)c(OCC(F)F)c(Cl)c2)cc(NC(=O)C(C)C)n1 (single isomer, unassigned) [Example 1212, N-(1-(3-chloro-4-(2,2-difluoroethoxy)-5-methylphenyl)ethyl)-2-isobutyramido-6-methylisonicotinamide]",< 1
18,"CC(=O)Nc1cc(C(=O)NCc2cccc(OCC(F)(F)F)n2)ccn1 [Example 22, 2-acetamido-N-((6-(2,2,2-trifluoroethoxy)pyridin-2-yl)methyl)isonicotinamide]",< 1

row,Structure (SMILES),IC50 [µM]
1,"CC(=O)Nc1cc(C(=O)NCc2cccc(OC(F)(F)F)c2)ccn1 [Example 24, 2-acetamido-N-(3-(trifluoromethoxy)benzyl)isonicotinamide]",< 1
2,"O=C(NCc1cccc(OCC(F)(F)F)n1)c1cccc2[nH]c(=O)[nH]c12 [Example 57, 2-oxo-N-((6-(2,2,2-trifluoroethoxy)pyridin-2-yl)methyl)-2,3-dihydro-1H-benzo[d]imidazole-4-carboxamide]",< 1
3,"CCC(=O)Nc1cc(C(=O)NCc2ccnc(OCC(F)(F)F)c2)cc(C)n1 [Example 137, 2-methyl-6-propionamido-N-((2-(2,2,2-trifluoroethoxy)pyridin-4-yl)methyl)isonicotinamide]",< 1
4,"CCC(=O)Nc1cc(C(=O)NCc2ccc(OCC(F)(F)F)nc2C)cc(C)n1 [Example 168, 2-methyl-N-((2-methyl-6-(2,2,2-trifluoroethoxy)pyridin-3-yl)methyl)-6-propionamidoisonicotinamide]",< 1
5,"Cc1cc(OCC(F)(F)F)ncc1CNC(=O)c1ccnc(NC(=O)C(C)C)c1 [Example 178, 2-isobutyramido-N-((4-methyl-6-(2,2,2-trifluoroethoxy)pyridin-3-yl)methyl)isonicotinamide]",< 1
6,"CCC(=O)Nc1cc(C(=O)NCc2cnc(OCC(F)(F)F)cc2C)cc(C)n1 [Example 179, 2-methyl-N-((4-methyl-6-(2,2,2-trifluoroethoxy)pyridin-3-yl)methyl)-6-propionamidoisonicotinamide]",< 1
7,"COc1nc(OCC(F)(F)F)ccc1CNC(=O)c1cc(C)nc(NC(=O)C2CC2)n1 [Example 181, 2-(cyclopropanecarboxamido)-N-((2-methoxy-6-(2,2,2-trifluoroethoxy)pyridin-3-yl)methyl)-6-methylpyrimidine-4-carboxamide]",< 1
8,"CC(=O)Nc1cc(C(=O)NCc2ccc(OCC(F)(F)F)nc2)cc(C)n1 [Example 237, 2-acetamido-6-methyl-N-((6-(2,2,2-trifluoroethoxy)pyridin-3-yl)methyl)isonicotinamide]",< 1
9,"CC(=O)Nc1cc(C(=O)NCc2cnc(OCC(F)(F)F)cc2C)cc(C)n1 [Example 243, 2-acetamido-6-methyl-N-((4-methyl-6-(2,2,2-trifluoroethoxy)pyridin-3-yl)methyl)isonicotinamide]",< 1
10,"CCOc1cc(CNC(=O)c2cc(C)nc(NC(C)=O)c2)cnc1OCC(F)(F)F [Example 264, 2-acetamido-N-((5-ethoxy-6-(2,2,2-trifluoroethoxy)pyridin-3-yl)methyl)-6-methylisonicotinamide]",< 1
11,CCC(=O)Nc1cc(C(=O)NCc2cnc(OCC(F)(F)F)c(OC)c2)cc(C)n1 [Example 270],< 1
12,"COc1cc(CNC(=O)c2cc(C)nc(NC(C)=O)c2)cnc1OCC(F)(F)F [Example 272, 2-acetamido-N-((5-methoxy-6-(2,2,2-trifluoroethoxy)pyridin-3-yl)methyl)-6-methylisonicotinamide]",< 1
13,"CC(=O)Nc1cc(C(=O)NCc2ccc(OCC(F)(F)F)nc2N2CCOCC2)ccn1 [Example 281, 2-acetamido-N-((2-morpholino-6-(2,2,2-trifluoroethoxy)pyridin-3-yl)methyl)isonicotinamide]",< 1
14,"CC(C)C(=O)Nc1cc(C(=O)NCc2ccc(OCC(F)(F)F)nc2N2CCOCC2)ccn1 [Example 282, 2-isobutyramido-N-((2-morpholino-6-(2,2,2-trifluoroethoxy)pyridin-3-yl)methyl)isonicotinamide]",< 1
15,"CC(=O)Nc1cc(C(=O)NCc2ccc(OCC(F)(F)F)nc2N2CCOCC2)cc(C)n1 [Example 283, 2-acetamido-6-methyl-N-((2-morpholino-6-(2,2,2-trifluoroethoxy)pyridin-3-yl)methyl)isonicotinamide]",< 1
16,"CCC(=O)Nc1cc(C(=O)NCc2ccc(OCC(F)(F)F)nc2N2CCOCC2)cc(C)n1 [Example 284, 2-methyl-N-((2-morpholino-6-(2,2,2-trifluoroethoxy)pyridin-3-yl)methyl)-6-propionamidoisonicotinamide]",< 1
17,"COc1nc(OCC(F)(F)F)ccc1CN(C)C(=O)c1cc(C)nc(NC(C)=O)c1 [Example 290, 2-acetamido-N-((2-methoxy-6-(2,2,2-trifluoroethoxy)pyridin-3-yl)methyl)-N,6-dimethylisonicotinamide]",< 1
18,"CCC(=O)Nc1cc(C(=O)N(C)Cc2ccc(OCC(F)(F)F)nc2OC)cc(C)n1 [Example 291, N-((2-methoxy-6-(2,2,2-trifluoroethoxy)pyridin-3-yl)methyl)-N,2-dimethyl-6-propionamidoisonicotinamide]",< 1
